Reference: US20100129470A1, “METHOD OF TREATING BRAIN CANCER” (Myriad Pharmaceuticals, Incorporated, priority 2007, published 2010)
Entries after “also recorded” stand apart in the source; their conditions may differ. Structures can show the parent of a compound that is named as a salt.

Tested on: Subjects with Refractory Solid Tumors
Test: Phase I clinical trial: open-label, dose-escalating, multiple-dose study of weekly intravenous administration
Type: in vivo
Conditions: human subjects
Description: An open-label, dose-escalating, multiple-dose study to define the safety, tolerability and phamacokinetics of weekly intravenous administration of (4-Methoxy-phenyl)-methyl-(2-methyl-quinazolin-4-yl)-amine hydrochloride was performed. A dosing schedule (each 4 week cycle) was performed for (4-Methoxy-phenyl)-methyl-(2-methyl-quinazolin-4-yl)-amine hydrochloride weekly for 3 weeks with no infusion on the fourth week of each cycle. Subjects with refractory solid tumors were enrolled in cohorts of 3. During Cycle 1, subjects were hospitalized during each infusion of (4-Methoxy-phenyl)-methyl-(2-methyl-quinazolin-4-yl)-amine hydrochloride and remained for observation and safety evaluation for approximately 24 hours following the end of the infusion. All subject had continuous telemetry for 2 hours prior to infusion, for 1-2 hour infusion and for 3 hours after the end of the infusion. Any clinically significant electrocardiographic (ECG) wave form abnormality was recorded and prolongation of the monitoring period extended at the discretion of the principal investigator.
Electrocardiograms were obtrained prior to starting the infusion and within 30 minutes of the end of infusion for each infusino of the first cycle. Electrocardiograms on Day 1 were obtained in triplicate 5 minutes apart.
Neurocognitive assessments were made by administration of the Mini-Mental State Examination (MMSE), the Hopkins Verbal Learning and timed Grooved Pegboard tests before administration of the intravenous infusion and approximately 24 hours of the infusion at each weekly administration of the first cycle.
On days 1, 8, and 15 of each cycle, vital signs were obtained prior to the first dose, at 15, 30, and 60 minutes after the initiation of the infusion, and at 0.5, 1, 1.5, 2, and 4 hours after the end of the intravenous infusion. Vital signs at all time points beyond the start of the intravenous infusion included heart rate, blood pressure and respirations. Temperature ws measured at the end of the infusion and 4 hours later.
Individual subjects were allowed to continue on repeated weekly×3 administrations every 28 days with no dose increase provided there was no unacceptable toxicity or disease progression.
Tumor response was evaluated by response evaluation criteria in solid tumors (RECIST) criteria. To prevent sever hypersensitivity reactions due to Cremophor® EL, subjects were premedicated with oral dexamethasone (20 mg) administered approximately 12 and 6 hours before the intrvenous infusion with (4-Methoxy-phenyl)-methyl-(2-methyl-quinazolin-4-yl)-amine hydrochloride, diphenhydramine (50 mg) or its equivalent administered intravenously 30-60 minutes before (4-Methoxy-phenyl)-methyl-(2-methyl-quinazolin-4-yl)-amine hydrochloride, and cimetidine (300 mg) or ranitidine (50 mg) administered intravenously 30-60 minutes before (4-Methoxy-phenyl)-methyl-(2-methyl-quinazolin-4-yl)-amine hydrochloride.

[1] = weekly i.v. infusion, 0.3-3.3 mg/m^2

Q: Which “effects on cardiac conduction (PR, QRS or QTc)” value (ECG, weekly i.v. infusion, 0.3-3.3 mg/m^2) does the source give for `COc1ccc(N(C)c2nc(C)nc3ccccc23)cc1` [(4-Methoxy-phenyl)-methyl-(2-methyl-quinazolin-4-yl)-amine hydrochloride] here?
A: no significant effects

Q: What about the safety and tolerability (weekly i.v. administration, various dosages, hydrochloride) of the same compound?
A: safe and well tolerated; also recorded: safe and tolerable

Q: And the peripheral cytotoxicity (weekly i.v. infusion for 3 weeks of each 4 week cycle, 0.3-3.3 mg/m^2)?
A: no evidence of cytotoxity peripherally

Q: And the bradycardia [1]?
A: occasional episodes of bradycardia

Q: What about the dose limiting toxicity [1] of the same compound?
A: vascular in nature, manifested by an acute coronary syndrome

Q: And the intratumor bleeding [1]?
A: incidences of intratumor bleeding

Q: What about the systolic blood pressure [1] of the same compound?
A: dose-related increase
